The values that follow come from ChEMBL document CHEMBL3124819, “2',4'-Difluoro-2'-methyl Substituted Nucleoside Derivatives as Inhibitors of HCV RNA Replication” (ACS Med Chem Lett, 2014).

Data set [1] in a line: Cytotoxicity against human HuH7 cells after 2 hrs by WST-1 assay relative to control. The class given is cell-based, Huh-7.
In a further data set the test system is Hepatitis C virus. Kind of data set: Antiviral activity against HCV genotype 1b infected in human HuH7 cells assessed as inhibition of viral RNA replication after 3 days by luciferase reporter gene assay. It counts as functional, organism-based, Hepacivirus hominis. Conditions: Huh-7, 72 h. (In general: In a reporter assay the amount or activity of a reporter protein is the signal.)

For `CC(C)OC(=O)[C@H](C)NP(=O)(OC[C@@]1(F)O[C@@H](n2ccc(=O)[nH]c2=O)[C@](C)(F)[C@@H]1O)Oc1cccc2ccccc12` (stereo partly specified), the cytotoxic concentration (CC50) (usually the concentration that lowers cell viability or growth by half) at 2 h in data set [1] was above 100 µM. In the data set with Hepatitis C virus, the IC50 (as a rule, the concentration that inhibits the measured activity by half) amounted to 0.115 µM. In the same order, the values of `CCC(=O)O[C@H]1[C@@](C)(F)[C@H](n2ccc(=O)[nH]c2=O)O[C@]1(F)COP(=O)(N[C@@H](C)C(=O)OC(C)C)Oc1cccc2ccccc12` (stereo partly specified) are 67.8 µM and 0.151 µM. In turn, `CC(C)OC(=O)[C@H](C)NP(=O)(OC[C@@]1(F)O[C@@H](n2ccc(=O)[nH]c2=O)[C@](C)(F)[C@@H]1O)Oc1ccc2ccccc2c1` (stereo partly specified) registered a CC50 at 2 h in data set [1] above 100 µM. Still for that read-out and setting: then `CC(C)OC(=O)[C@H](C)NP(=O)(OC[C@@]1(F)O[C@@H](n2ccc(=O)[nH]c2=O)[C@](C)(F)[C@@H]1O)Oc1ccccc1` (stereo partly specified), with above 100 µM.
